Measured values from patent US9827338B2, “GRP-R agonistic 177-lutetium-labeled bombesin derivatives for diagnosis and treatment of prostate cancer” (KOREA ATOMIC ENERGY RESEARCH INSTITUTE, priority 2014, dated 2017).

Experiments:
prostate cancer = experiment: Comparison of in vivo targeting efficiency to prostate cancer with comparative material 177Lu-AMBA; conditions: versus comparative material 177Lu-AMBA
Text: As a material having prostate cancer targeting mechanism similar to that of the bombesin derivatives (177Lu-DOTA-gluBBN) using the bombesin derivatives, which is the GRP-R agonist, prepared according to Example 2, 177Lu-AMBA (comparative material (J. Nucl. Med. 47(7):1144-1152 (Non-Patient Document)), see compound in FIG. 1) is a prostate cancer targeting diagnosis and treatment material of which excellent targeting efficiency is recognized, such that currently a phase 1 clinical trial was terminated.

[1] = In vivo histological toxicity (spleen and kidney, H&E); set-up: species or system Balb/c nude mouse; conditions: therapeutic dose, H&E stained, versus normal and control group
Description: (§1) In order to confirm a toxicological effect by therapeutic dose, a body weight and histological states of organs were evaluated. The body weight was measured twice a week, and after euthanizing the animal model at the timing at which evaluation was terminated, spleen and kidney tissue was collected and H&E stained.

[2] = In vivo distribution in PC-3 xenografted tumor mouse model; conditions: male, Balb/c nude, tumor (PC-3 xenograft), total radioactivity, prostate cancer cells (tumor), 1 hour after intravenous injection, 370 KBq, read-out: tumor uptake, percentage of the injected dose per unit weight
Description: In order to evaluate in vivo targeting efficiency of 177Lu-DOTA-gluBBN, in vivo distribution of 177Lu-DOTA-gluBBN in a tumor mouse model obtained by xenografting PC-3 cells, which are human prostate cancer cells, into a Balb/c nude mouse (Nara biotech, Korea) was evaluated. The tumor-bearing mouse model was prepared by subcutaneously injecting the PC-3 cells (1×10^7) into a right upper end of the shoulder of a male Balb/c nude mouse (7 weeks old) and allowing tumor to grow for 3 weeks. 177Lu-DOTA-gluBBN (370 KBq) was intravenously injected into a tail vein of the tumor mouse model. After […] of injection, the experimental animal was euthanized. Then, after the blood, the liver, the kidney, the spleen, the heart, the large intestine, the small intestine, the lung, the stomach, the pancreas, and the like, in addition to the tumor were extracted, weights of the organs were measured, and radioactivity of each organ was measured. 177Lu-DOTA-gluBBN uptake in each organ was expressed as percentage of the injected dose per unit weight (% ID/g). It was confirmed that 177Lu-DOTA-gluBBN targeted prostate cancer cells at 1 hour after intravenous injection with high efficiency (12.42±2.15% ID/g).

[3] = In vivo physiological toxicity (body weight); set-up: species or system mouse; conditions: therapeutic dose, early stage of administration, measured twice a week
Description: as §1

GRP-R [4] = biological target: T1, GRP-R (Homo sapiens, UniProt P30550); experiment: Binding of 177Lu-DOTA-gluBBN in PC-3 cells (dissociation constant); conditions: 0.01 to 100 nM, 37° C., 2 hours
T1 construct: PC-3 cells were used as a human prostate cancer cell line; host or cells: PC-3 human prostate cancer cells
Description: (§2) In order to confirm in vitro targeting efficiency of DOTA-gluBBN and 177Lu-DOTA-gluBBN prepared according to Examples 1 and 2 to prostate cancer cells, PC-3 cells were used as a human prostate cancer cell line. The PC-3 cells corresponding to the human prostate cancer cell line were purchased from Korean cell line bank. The PC-3 cells were cultured in a Roswell Park Memorial Institute (RPMI) 1640 medium containing 10% fetal bovine serum (FBS) at 37° C. in 5% CO2 atmosphere.
(§3) The cells were cultured in a disposable flask for cell culture, and at the time of an experiment, the cells were cultured in a 96-well or 12-well cell culture plate according to an experimental method and then used.
In addition, 177Lu-DOTA-gluBBN (0.01 to 100 nM) prepared according to Example 2 was reacted, respectively, in the PC-3 cells. After culturing a cell plate at 37° C. for 2 hours, a reaction solution was recovered. After the cells were washed with PBS and recovered by 1N NaOH, radioactivity of each solution was measured using a gamma counter.

GRP-R [5] = biological target: T1, GRP-R; experiment: Competitive binding with 125I-[Tyr4]-bombesin in PC-3 cells; conditions: competition with 125I-[Tyr4]-bombesin (20,000 CPM), 37° C., 1 hour
Description: as §2, §3
DOTA-gluBBN (10^−6 to 10^−12M) prepared according to Example 1 was co-cultured with 125I-[Tyr^4]-bombesin (20,000 CPM), respectively, in the PC-3 cells, which are human prostate cancer cells, to thereby carry out a competitive reaction. After culturing a cell plate at 37° C. for 1 hour, a reaction solution was recovered. After the cells were washed with PBS and recovered by 1N NaOH, radioactivity of each solution was measured using a gamma counter.

T1 sequence (P30550 whole entry): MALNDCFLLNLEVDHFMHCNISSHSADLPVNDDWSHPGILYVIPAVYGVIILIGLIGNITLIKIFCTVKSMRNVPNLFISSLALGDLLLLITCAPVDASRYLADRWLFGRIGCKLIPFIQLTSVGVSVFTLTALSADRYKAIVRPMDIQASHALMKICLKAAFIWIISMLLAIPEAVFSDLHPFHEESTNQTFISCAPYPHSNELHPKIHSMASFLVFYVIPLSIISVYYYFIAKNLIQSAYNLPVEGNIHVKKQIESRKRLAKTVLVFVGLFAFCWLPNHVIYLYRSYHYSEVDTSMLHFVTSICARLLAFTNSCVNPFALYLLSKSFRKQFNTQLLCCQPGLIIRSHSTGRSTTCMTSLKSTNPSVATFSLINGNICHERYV

Compound | removal in the blood versus 177Lu-AMBA (prostate cancer) | histological toxicity in spleen and kidney [1] | tissue uptake at 1 h [2] [%ID/g] | body weight change [3] | Kd (GRP-R [4]) [nM] | IC50 (GRP-R [5]) [nM]
CSCC[C@H](NC(=O)[C@H](CC(C)C)NC(=O)[C@H](Cc1c[nH]cn1)NC(=O)CNC(=O)[C@@H](NC(=O)[C@H](C)NC(=O)[C@H](Cc1c[nH]c2ccccc12)NC(=O)[C@H](CCC(N)=O)NC(=O)c1ccc(NC(=O)[C@H](CCCCNC(=O)CO[C@@H]2[C@@H](O)[C@@H](O)O[C@H](CO)[C@H]2O)NC(=O)CN2CCN(CC(=O)O)CCN(CC(=O)O)CCN(CC(=O)O)CC2)cc1)C(C)C)C(N)=O [177Lu-DOTA-gluBBN, metal not drawn] | more rapidly removed in the blood | not observed | 12.4 ± 2.15 | there was not a great change in the body weight | ~0.63 | 
CSCC[C@H](NC(=O)[C@H](CC(C)C)NC(=O)[C@H](Cc1c[nH]cn1)NC(=O)CNC(=O)[C@@H](NC(=O)[C@H](C)NC(=O)[C@H](Cc1c[nH]c2ccccc12)NC(=O)[C@H](CCC(N)=O)NC(=O)c1ccc(NC(=O)[C@H](CCCCNC(=O)CO[C@@H]2[C@@H](O)[C@@H](O)O[C@H](CO)[C@H]2O)NC(=O)CN2CCN(CC(=O)O)CCN(CC(=O)O)CCN(CC(=O)O)CC2)cc1)C(C)C)C(N)=O [DOTA-gluBBN] |  |  |  |  |  | 4.67
